According to ChEMBL document CHEMBL1145573, “Lead identification to generate isoquinolinedione inhibitors of insulin-like growth factor receptor (IGF-1R) for potential use in cancer treatment” (Bioorg Med Chem Lett, 2008):
≈ marks a conversion by molar mass, not a printed value.

Tests used:
[1] = Ratio of IC50 for IR to IC50 for IGFR
[2] = Inhibition of IGFR
[3] = Aqueous solubility at pH 7.4; format: physicochemical

Cc1ccc(Nc2ccc3c(c2)/C(=C/Nc2ccc(CN4CCCCC4)cc2)C(=O)NC3=O)cc1
Ratio IC50 [1]: 1.14
IC50 [2]: 498 nM

O=C1NC(=O)c2ccc(Br)cc2/C1=C/Nc1ccc(CN2CCCCC2)cc1
IC50 [2]: 2890 nM

O=C1NC(=O)c2ccc(Nc3ccccc3Cl)cc2/C1=C/Nc1ccc(CN2CCCCC2)cc1
IC50 [2]: 1660 nM

COc1cccc(Nc2ccc3c(c2)/C(=C/Nc2ccc(CN(C)C)cc2)C(=O)NC3=O)c1
Ratio IC50 [1]: 0.48
IC50 [2]: 1390 nM

CC(=O)c1cccc(Nc2ccc3c(c2)/C(=C/Nc2ccc(CN4CCCCC4)cc2)C(=O)NC3=O)c1
Ratio IC50 [1]: 0.72
IC50 [2]: 438 nM

CN(C)Cc1ccc(N/C=C2\C(=O)NC(=O)c3ccc(Nc4ccccc4)cc32)cc1
Ratio IC50 [1]: 0.62
IC50 [2]: 920 nM

COc1cc(Nc2ccc3c(c2)/C(=C/Nc2ccc(CN4CCCCC4)cc2)C(=O)NC3=O)cc(C(F)(F)F)c1
IC50 [2]: > 10000 nM

N#Cc1ccccc1Nc1ccc2c(c1)/C(=C/Nc1ccc(CN3CCCCC3)cc1)C(=O)NC2=O
IC50 [2]: 4200 nM

CC1CN(c2ccc(N/C=C3\C(=O)NC(=O)c4ccc(-c5ccoc5)cc43)cc2)CC(C)N1 (stereo unspecified)
Ratio IC50 [1]: 1
IC50 [2]: 629 nM

O=C1NC(=O)c2ccc(Nc3cccc(C(F)(F)F)c3)cc2/C1=C/Nc1ccc(CN2CCCCC2)cc1
IC50 [2]: > 10000 nM

CCN(CC)Cc1ccc(N/C=C2\C(=O)NC(=O)c3ccc(Nc4ccc(C)cc4)cc32)cc1
Ratio IC50 [1]: 0.64
IC50 [2]: 1160 nM

COc1ccc(Nc2ccc3c(c2)/C(=C/Nc2ccc(CN4CCCCC4)cc2)C(=O)NC3=O)cc1
IC50 [2]: 971 nM

CC(=O)c1cccc(Nc2ccc3c(c2)/C(=C/Nc2ccc(CN(C)C)cc2)C(=O)NC3=O)c1
Ratio IC50 [1]: 0.87
IC50 [2]: 887 nM

O=C1NC(=O)c2ccc(-c3ccoc3)cc2/C1=C/Nc1ccc(CN2CCCCC2)cc1
Ratio IC50 [1]: 0.75
IC50 [2]: 715 nM

O=C1NC(=O)c2ccc(Br)cc2/C1=C/Nc1ccc(CN2CCCC2)cc1
IC50 [2]: 2420 nM

O=C1NC(=O)c2ccc(Nc3ccc4c(c3)OCO4)cc2/C1=C/Nc1ccc(CN2CCCCC2)cc1
IC50 [2]: 894 nM

Cc1ccccc1Nc1ccc2c(c1)/C(=C/Nc1ccc(CN3CCCCC3)cc1)C(=O)NC2=O
IC50 [2]: 4140 nM

CN(C)Cc1ccc(N/C=C2\C(=O)NC(=O)c3ccc(Br)cc32)cc1
Ratio IC50 [1]: 0.58
IC50 [2]: 7170 nM

O=C1NC(=O)c2ccc(Nc3ccccc3)cc2/C1=C/Nc1ccc(CN2CCCCC2)cc1
Ratio IC50 [1]: 0.87
IC50 [2]: 455 nM

CN(C)c1ccc(Nc2ccc3c(c2)/C(=C/Nc2ccc(CN4CCCCC4)cc2)C(=O)NC3=O)cc1
IC50 [2]: > 10000 nM

O=C1NC(=O)c2ccc(Nc3cccc(F)c3)cc2/C1=C/Nc1ccc(CN2CCCCC2)cc1
IC50 [2]: 2630 nM

O=C1NC(=O)c2ccc(Nc3ccc4c(c3)CCC4)cc2/C1=C/Nc1ccc(CN2CCCCC2)cc1
IC50 [2]: 7930 nM

COc1cccc(Nc2ccc3c(c2)/C(=C/Nc2ccccc2)C(=O)NC3=O)c1
IC50 [2]: > 10000 nM

Nc1cccc(Nc2ccc3c(c2)/C(=C/Nc2ccc(CN4CCCCC4)cc2)C(=O)NC3=O)c1
IC50 [2]: > 10000 nM

COc1ccccc1Nc1ccc2c(c1)/C(=C/Nc1ccc(CN3CCCCC3)cc1)C(=O)NC2=O
IC50 [2]: 610 nM

O=C1NC(=O)c2ccc(Nc3ccc4[nH]ccc4c3)cc2/C1=C/Nc1ccc(CN2CCCCC2)cc1
IC50 [2]: > 10000 nM

CC(=O)c1cccc(Nc2ccc3c(c2)/C(=C/Nc2ccc(N4CC(C)NC(C)C4)cc2)C(=O)NC3=O)c1 (stereo unspecified)
Ratio IC50 [1]: 0.85
IC50 [2]: 540 nM

O=C1NC(=O)c2ccc(Nc3cccc4ncccc34)cc2/C1=C/Nc1ccc(CN2CCCCC2)cc1
IC50 [2]: 5200 nM

COc1cccc(Nc2ccc3c(c2)/C(=C/Nc2ccc(CN4CCCCC4)cc2)C(=O)NC3=O)c1
IC50 [2]: 1080 nM

CC(=O)c1ccc(Nc2ccc3c(c2)/C(=C/Nc2ccc(CN4CCCCC4)cc2)C(=O)NC3=O)cc1
IC50 [2]: 5890 nM

O=C1NC(=O)c2ccc(Nc3ccc(Cl)cc3)cc2/C1=C/Nc1ccc(CN2CCCCC2)cc1
IC50 [2]: > 10000 nM

COc1ccc(Nc2ccc3c(c2)/C(=C/Nc2ccc(CN(C)C)cc2)C(=O)NC3=O)cc1
Ratio IC50 [1]: 0.69
IC50 [2]: 566 nM

CN1CCN(c2ccc(N/C=C3\C(=O)NC(=O)c4ccc(NS(=O)(=O)c5ccccc5)cc43)cc2)CC1
Ratio IC50 [1]: 0.83
IC50 [2]: 829 nM

Cc1cccc(Nc2ccc3c(c2)/C(=C/Nc2ccc(CN4CCCCC4)cc2)C(=O)NC3=O)c1
IC50 [2]: > 10000 nM

N#Cc1cccc(Nc2ccc3c(c2)/C(=C/Nc2ccc(CN4CCCCC4)cc2)C(=O)NC3=O)c1
IC50 [2]: 1130 nM

N#Cc1ccc(Nc2ccc3c(c2)/C(=C/Nc2ccc(CN4CCCCC4)cc2)C(=O)NC3=O)cc1
IC50 [2]: 1330 nM

CCOC(=O)c1ccc(Nc2ccc3c(c2)/C(=C/Nc2ccc(CN4CCCCC4)cc2)C(=O)NC3=O)cc1
IC50 [2]: > 10000 nM

O=C1NC(=O)c2ccc(Nc3cccc(Cl)c3)cc2/C1=C/Nc1ccc(CN2CCCCC2)cc1
IC50 [2]: 2390 nM

CC(=O)c1cccc(Nc2ccc3c(c2)/C(=C/Nc2ccc(N4CCN(C)CC4)cc2)C(=O)NC3=O)c1
solubility [3]: 1000 µg/mL (≈ 2020 µM)
Ratio IC50 [1]: 1.6
IC50 [2]: 319 nM

NC(=O)c1ccc(Nc2ccc3c(c2)/C(=C/Nc2ccc(CN4CCCCC4)cc2)C(=O)NC3=O)cc1
IC50 [2]: 957 nM

O=C1NC(=O)c2ccc(Nc3cccc(Cl)c3)cc2/C1=C/Nc1ccccc1
IC50 [2]: > 10000 nM
